Source: ChEMBL document CHEMBL2176926, “Crystal structure of human aurora B in complex with INCENP and VX-680” (J Med Chem, 2012)

Assays:
Aurora kinase B-A = Aurora kinase B-A (Xenopus laevis, UniProt Q6DE08); assay: Inhibition of Xenopus laevis Aurora kinase B/INCEP complex using gamma-[32P]ATP incubated for 1 hr by autoradiography
Aurora kinase B = Aurora kinase B (Homo sapiens, UniProt Q96GD4); assay: Inhibition of human Aurora kinase B/INCEP complex expressed in Escherichia coli BL21 (DE3) using gamma-[32P]ATP incubated for 1 hr by autoradiography
Aurora kinase A = biological target: T1, Aurora kinase A (Homo sapiens, UniProt O14965)
T1 sequence (O14965 whole entry): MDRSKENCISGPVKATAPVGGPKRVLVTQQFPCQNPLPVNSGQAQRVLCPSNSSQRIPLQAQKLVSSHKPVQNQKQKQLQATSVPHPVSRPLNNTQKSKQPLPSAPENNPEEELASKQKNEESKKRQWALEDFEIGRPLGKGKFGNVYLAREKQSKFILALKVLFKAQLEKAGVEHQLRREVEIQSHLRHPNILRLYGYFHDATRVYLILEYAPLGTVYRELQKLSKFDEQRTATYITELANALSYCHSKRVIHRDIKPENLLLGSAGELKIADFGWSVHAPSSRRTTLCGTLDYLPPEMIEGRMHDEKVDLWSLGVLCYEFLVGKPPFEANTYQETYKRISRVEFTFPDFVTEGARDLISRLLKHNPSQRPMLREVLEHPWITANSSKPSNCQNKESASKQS
Description: Inhibition of human Aurora kinase A/TPX2 complex using gamma-[32P]ATP incubated for 1 hr by autoradiography

Sequence of Aurora kinase B-A (Q6DE08 whole entry): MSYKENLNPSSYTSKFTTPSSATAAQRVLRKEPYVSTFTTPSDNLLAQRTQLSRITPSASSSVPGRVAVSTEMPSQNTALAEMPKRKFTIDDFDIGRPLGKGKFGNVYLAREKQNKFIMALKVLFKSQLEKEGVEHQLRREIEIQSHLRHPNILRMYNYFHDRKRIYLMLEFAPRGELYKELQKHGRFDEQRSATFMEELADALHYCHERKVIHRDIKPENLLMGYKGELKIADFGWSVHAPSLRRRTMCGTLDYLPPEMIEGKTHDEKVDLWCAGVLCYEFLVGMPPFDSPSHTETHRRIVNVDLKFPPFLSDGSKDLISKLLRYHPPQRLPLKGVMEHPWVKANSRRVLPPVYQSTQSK
Sequence of Aurora kinase B (Q96GD4 whole entry): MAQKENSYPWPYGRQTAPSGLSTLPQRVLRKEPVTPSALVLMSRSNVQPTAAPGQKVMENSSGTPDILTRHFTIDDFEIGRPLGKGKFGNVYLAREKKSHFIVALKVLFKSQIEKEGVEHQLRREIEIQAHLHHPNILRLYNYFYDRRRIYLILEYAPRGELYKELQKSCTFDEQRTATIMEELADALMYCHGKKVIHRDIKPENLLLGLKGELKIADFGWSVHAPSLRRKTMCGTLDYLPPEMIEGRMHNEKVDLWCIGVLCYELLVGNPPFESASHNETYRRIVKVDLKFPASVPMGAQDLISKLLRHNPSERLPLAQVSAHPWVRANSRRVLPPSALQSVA

IC50 (Aurora kinase B-A) [nM]	IC50 (Aurora kinase B) [nM]	IC50 (Aurora kinase A) [nM]	SMILES
45			COc1cc2c(Nc3ccc(NC(=O)c4ccccc4)cc3)ncnc2cc1OCCCN1CCOCC1
3	3	11	CCS(=O)(=O)Nc1ccc2c(c1)/C(=C(/Nc1ccc(CN3CCCCC3)cc1)c1ccccc1)C(=O)N2 [HESPERADIN]
19			Cc1cc(Nc2cc(N3CCN(C)CC3)nc(Sc3ccc(NC(=O)C4CC4)cc3)n2)[nH]n1 [TOZASERTIB]
